Data: patent publication US10357481B2 (MERCK SHARP & DOHME CORP., priority 2015, dated 2019)

Target: T1, human PDE2A1 (Homo sapiens, UniProt O00408)
T1 construct: GST; purchased BPS Bioscience (San Diego, Calif.) 60020; host or cells: insect cells
Test: IMAP FP PDE selectivity panel, human PDE2A1
Type: biochemical
Conditions: Lab B; read-out: Human PDE2 Ki (nM) Lab B
Method in brief: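 Human PDE2A1 tested alongside PDE1–11 by IMAP fluorescence polarization at room temperature. Substrate was 50 nM FAM-cAMP plus 1000 nM cGMP, buffer pH 7.2 with MgCl2 and DTT, enzyme set for 20% conversion. Ten 3-fold compound dilutions; 60 min reaction, then IMAP binding solution, 1 h, parallel/perpendicular fluorescence read.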

T1 sequence (O00408 1-920 isoform O00408-2): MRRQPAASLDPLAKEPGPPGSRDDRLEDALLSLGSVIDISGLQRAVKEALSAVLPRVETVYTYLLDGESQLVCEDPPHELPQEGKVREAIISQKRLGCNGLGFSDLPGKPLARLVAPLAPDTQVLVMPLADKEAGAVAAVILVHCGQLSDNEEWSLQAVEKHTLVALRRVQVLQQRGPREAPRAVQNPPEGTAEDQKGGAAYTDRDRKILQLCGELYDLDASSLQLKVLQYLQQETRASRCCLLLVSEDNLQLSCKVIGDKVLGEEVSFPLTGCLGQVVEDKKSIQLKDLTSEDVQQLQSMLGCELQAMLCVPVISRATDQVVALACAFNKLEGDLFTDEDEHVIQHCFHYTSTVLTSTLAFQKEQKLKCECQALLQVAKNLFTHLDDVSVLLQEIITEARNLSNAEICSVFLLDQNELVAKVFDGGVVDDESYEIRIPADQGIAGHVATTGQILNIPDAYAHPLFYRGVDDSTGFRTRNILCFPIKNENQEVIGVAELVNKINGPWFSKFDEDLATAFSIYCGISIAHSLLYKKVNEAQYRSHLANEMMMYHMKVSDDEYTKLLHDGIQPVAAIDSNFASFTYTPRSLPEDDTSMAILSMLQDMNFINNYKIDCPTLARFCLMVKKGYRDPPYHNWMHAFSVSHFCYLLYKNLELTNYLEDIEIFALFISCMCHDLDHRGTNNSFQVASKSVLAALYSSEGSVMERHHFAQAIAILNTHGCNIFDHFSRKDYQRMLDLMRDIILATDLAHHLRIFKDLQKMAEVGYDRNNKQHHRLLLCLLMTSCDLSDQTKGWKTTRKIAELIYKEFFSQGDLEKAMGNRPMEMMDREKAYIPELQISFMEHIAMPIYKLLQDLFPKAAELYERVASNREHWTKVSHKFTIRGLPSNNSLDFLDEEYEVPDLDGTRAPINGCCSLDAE

| Compound | Ki |
| --- | --- |
| Cc1cc(NC(C)(C)c2ccc(OC(F)(F)F)c(F)c2)n2ncnc2n1 [Example 45, N-{1-[3-Fluoro-4-(trifluoromethoxy)phenyl]-1-methylethyl}-5-methyl[1,2,4]triazolo[1,5-a]pyrimidin-7-amine] | 207 nM |
| Cc1cc(NC(C)(C)c2ccc(SC(F)(F)F)c(F)c2)n2ncnc2n1 [Example 50, N-(1-{3-Fluoro-4-[(trifluoromethyl)sulfanyl]phenyl}-1-methylethyl)-5-methyl[1,2,4]triazolo[1,5-a] pyrimidin-7-amine] | 182 nM |
| Cc1cc(NC(C)(C)c2ccc(OC(F)(F)F)cc2F)n2ncnc2n1 [Example 51, N-{1-[2-Fluoro-4-(trifluoromethoxy)phenyl]-1-methylethyl}-5-methyl [1,2,4]triazolo[1,5-a]pyrimidin-7-amine] | 206 nM |
| Cc1cc(NC2(c3ccc(S(F)(F)(F)(F)F)cc3)CC2)n2ncnc2n1 [Example 58, 5-Methyl-N-{1-[4-(pentafluoro-λ^6-sulfanyl)phenyl]cyclopropyl}[1,2,4] triazolo[1,5-a]pyrimidin-7-amine] | 52 nM |
| Cc1cc(NC2(c3ccc(SC(F)(F)F)cc3)CC2)n2ncnc2n1 [Example 59, 5-Methyl-N-(1-{4-[(trifluoromethyl)sulfanyl]phenyl}cyclopropyl)[1,2,4]triazolo [1,5-a]pyrimidin-7-amine] | 72 nM |
| Cc1cc(NC2(c3ccc(OC(F)(F)F)c(F)c3)CC2)n2ncnc2n1 [Example 60, N-{1-[3-Fluoro-4-(trifluoromethoxy)phenyl]cyclopropyl}5-methyl-[1,2,4]triazolo[1,5-a]pyrimidin-7-amine] | 32 nM |
| Cc1cc(NC2(c3ccc(C(C)(C)C)cc3)CC2)n2ncnc2n1 [Example 61, N-{1-[4-(tert-Butyl)phenyl]cyclopropyl}5-methyl-[1,2,4]triazolo[1,5-a]pyrimidin-7-amine] | 81 nM |
| Cc1cc(NC2(c3ccc(C(F)(F)F)cc3F)CC2)n2ncnc2n1 [Example 62, N-{1-[2-Fluoro-4-(trifluoromethyl)phenyl]cyclopropyl}5-methyl-[1,2,4]triazolo[1,5-a]pyrimidin-7-amine] | 162 nM |
| Cc1cc(NC2(c3ccc(SC(F)(F)F)c(F)c3)CC2)n2ncnc2n1 [Example 63, N-(1-{3-Fluoro-4-[(trifluoromethyl)sulfanyl]phenyl}cyclopropyl)-5-methyl[1,2,4]triazolo[1,5-a] pyrimidin-7-amine] | 33 nM |
| Cc1cc(NC2(c3ccc(SC(F)(F)F)cc3)CCC2)n2ncnc2n1 [Example 65, 5-Methyl-N-(1-{4-[(trifluoromethyl)sulfanyl]phenyl}cyclobutyl)[1,2,4] triazolo[1,5-a]pyrimidin-7-amine] | 75 nM |
| Cc1cc(NC2(c3ccc(SC(F)(F)F)c(F)c3)CCC2)n2ncnc2n1 [Example 66, N-(1-{3-Fluoro-4-[(trifluoromethyl)sulfanyl]phenyl}cyclobutyl)-5-methyl[1,2,4]triazolo[1,5-a] pyrimidin-7-amine] | 108 nM |
| Fc1cc(C2(Nc3cc(C4CC4)nc4ncnn34)CC2)ccc1C(F)(F)F [Example 70, 5-Cyclopropyl-N-{1-[3-fluoro-4-(trifluoromethyl)phenyl]cyclopropyl}[1,2,4]triazolo[1,5-a]pyrimidin-7-amine] | 3.7 nM |
| Fc1cc(C2(Nc3cc(C4CC4)nc4ncnn34)CC2)ccc1OC(F)(F)F [Example 71, 5-Cyclopropyl-N-{1-[3-fluoro-4-(trifluoromethoxy)phenyl]cyclo-propyl}[1,2,4]triazolo[1,5-a]pyrimidin-7-amine] | 25 nM |
| FS(F)(F)(F)(F)c1ccc(C2(Nc3cc(C4CC4)nc4ncnn34)CC2)cc1 [Example 72, 5-Cyclopropyl-N-{1-[4-(pentafluoro-λ^6-sulfanyl)phenyl]cyclopropyl}[1,2,4] triazolo[1,5-a]pyrimidin-7-amine] | 26 nM |
| CC(C)(C)c1cc(NC2(c3ccc(C(F)(F)F)c(F)c3)CC2)n2ncnc2n1 [Example 73] | 72 nM |
| Fc1cc(C2(Nc3cc(C(F)(F)C(F)(F)F)nc4ncnn34)CC2)ccc1C(F)(F)F [Example 74, N-{1-[3-Fluoro-4-(trifluoromethyl)phenyl]cyclopropyl}-5-(pentafluoroethyl) [1,2,4]triazolo[1,5-a]pyrimidin-7-amine] | 109 nM |
| COCc1cc(NC2(c3ccc(C(F)(F)F)c(F)c3)CC2)n2ncnc2n1 [Example 75, N-{1-[3-Fluoro-4-(trifluoromethyl)phenyl]cyclopropyl}-5-(methoxymethyl) [1,2,4]triazolo[1,5-a]pyrimidin-7-amine] | 201 nM |
| COCc1cc(N[C@@H](c2ccc(C(F)(F)F)c(F)c2)C(C)(C)C)n2ncnc2n1 [Example 76, N-{(1R)-1-[3-Fluoro-4-(trifluoromethyl)phenyl]-2,2-dimethylpropyl}-5-(methoxymethyl)[1,2,4]triazolo [1,5-a]pyrimidin-7-amine] | 969 nM |
| OCc1cc(NC2(c3ccc(C(F)(F)F)c(F)c3)CC2)n2ncnc2n1 [Example 78, [7-({1-[3-Fluoro-4-(trifluoromethyl)phenyl]cyclopropyl}amino)[1,2,4]triazolo[1,5-a]pyrimidin-5-yl]methanol] | 92 nM |
| CC(C)(C)[C@@H](Nc1cc(CO)nc2ncnn12)c1ccc(C(F)(F)F)c(F)c1 [Example 79, [7-({(1R)-1-[3-Fluoro-4-(trifluoromethyl)phenyl]-2,2-dimethylpropyl}amino)[1,2,4]triazolo[1,5-a]pyrimidin-5-yl]methanol] | 208 nM |
| FCc1cc(NC2(c3ccc(C(F)(F)F)c(F)c3)CC2)n2ncnc2n1 [Example 81, 5-(Fluoromethyl)-N-{1-[3-fluoro-4-(trifluoromethyl)phenyl]cyclopropyl}[1,2,4]triazolo[1,5-a]pyrimidin-7-amine] | 31 nM |
| Fc1cc(C2(Nc3cc(C(F)(F)F)nc4ncnn34)CC2)ccc1C(F)(F)F [Example 82, N-{1-[3-Fluoro-4-(trifluoromethyl)phenyl]cyclopropyl}-5-(trifluoromethyl)-[1,2,4]triazolo[1,5-a]pyrimidin-7-amine] | 10 nM |

Now from value to compound:

| Ki | Compound |
| --- | --- |
| 48 nM | Cc1cc(NC(C)(C)c2ccc(C(F)(F)F)c(F)c2)n2ncnc2n1 [Example 46, N-{1-[3-Fluoro-4-(trifluoromethyl)phenyl]-1-methylethyl}-5-methyl [1,2,4]triazolo[1,5-a]pyrimidin-7-amine] |
| 161 nM | Cc1cc(NC(C)(C)c2ccc(C(F)(F)F)cc2Cl)n2ncnc2n1 [Example 47, N-{1-[2-Chloro-4-(trifluoromethyl)phenyl]-1-methylethyl}-5-methyl [1,2,4]triazolo[1,5-a]pyrimidin-7-amine] |
| 474 nM | COc1cc(C(F)(F)F)ccc1C(C)(C)Nc1cc(C)nc2ncnn12 [Example 48, N-{1-[2-Methoxy-4-(trifluoromethyl)phenyl]-1-methylethyl}-5-methyl [1,2,4]triazolo[1,5-a]pyrimidin-7-amine] |
| 301 nM | Cc1cc(NC(C)(C)c2ccc(OC(F)(F)F)cc2)n2ncnc2n1 [Example 49, 5-Methyl-N-{1-methyl-1-[4-(trifluoromethoxy)phenyl]ethyl} [1,2,4]triazolo[1,5-a]pyrimidin-7-amine] |
| 78 nM | Cc1cc(NC(C)(C)c2ccc(C(F)(F)F)cc2F)n2ncnc2n1 [Example 52, N-{1-[2-Fluoro-4-(trifluoromethyl)phenyl]-1-methylethyl}-5-methyl [1,2,4]triazolo[1,5-a]pyrimidin-7-amine] |
| 99 nM | Cc1cc(NC(C)(C)c2ccc(C(F)(F)F)cc2)n2ncnc2n1 [Example 53, 5-Methyl-N-{1-methyl-1-[4-(trifluoromethyl)phenyl]ethyl} [1,2,4]triazolo[1,5-a]pyrimidin-7-amine] |
| 342 nM | Cc1cc(NC(C)(C)c2ccc(C(F)(F)F)cc2C)n2ncnc2n1 [Example 54, 5-Methyl-N-{1-methyl-1-[2-methyl-4-(trifluoromethyl)phenyl]ethyl}[1,2,4]triazolo[1,5-a] pyrimidin-7-amine] |
| 211 nM | Cc1cc(NC(C)(C)c2ccc(SC(F)(F)F)cc2)n2ncnc2n1 [Example 55, 5-Methyl-N-(1-methyl-1-{4-[(trifluoromethyl)sulfanyl]phenyl}ethyl)[1,2,4]triazolo[1,5-a] pyrimidin-7-amine] |
| 77 nM | Cc1cc(NC2(c3ccc(C(F)(F)F)cc3)CCC2)n2ncnc2n1 [Example 64, 5-Methyl-N-{1-[4-(trifluoromethyl)phenyl]cyclobutyl}[1,2,4]triazolo [1,5-a]pyrimidin-7-amine] |
| 367 nM | Cc1cc(NC2(c3ccc(C(F)(F)F)cc3)CCCC2)n2ncnc2n1 [Example 67, 5-Methyl-N-{1-[4-(trifluoromethyl)phenyl]cyclopentyl}[1,2,4]triazolo [1,5-a]pyrimidin-7-amine] |
| ~1180 nM | COCc1cc(N[C@H](C)c2ccc(C(F)(F)F)c(F)c2)n2ncnc2n1 [Example 77, N-{(1R)-1-[3-Fluoro-4-(trifluoromethyl)phenyl]ethyl}-5-(methoxymethyl)[1,2,4]triazolo [1,5-a]pyrimidin-7-amine] |
| 387 nM | C[C@@H](Nc1cc(CO)nc2ncnn12)c1ccc(C(F)(F)F)c(F)c1 [Example 80, [7-({(1R)-1-[3-Fluoro-4-(trifluoromethyl)phenyl]ethyl}amino)[1,2,4]triazolo[1,5-a]pyrimidin-5-yl]methanol] |
| ~1160 nM | Cc1nc2ncnn2c(N[C@H](C)c2ccc(C(F)(F)F)cc2)c1C [Example 85, 5,6-Dimethyl-N-{(1R)-1-[4-(trifluoromethyl)phenyl]ethyl}[1,2,4]triazolo[1,5-a]pyrimidin-7-amine] |
| ~1750 nM | Cc1nc2ncnn2c(N[C@@H](C)c2ccc(C(F)(F)F)cc2)c1C [Example 86, 5,6-Dimethyl-N-{(1S)-1-[4-(trifluoromethyl)phenyl]ethyl}[1,2,4]triazolo[1,5-a]pyrimidin-7-amine] |
